Measurements taken from US20220226334A1, “ANTIBODY CONJUGATE AND APPLICATION OF PHARMACEUTICAL COMPOSITION THEREOF” (SHANGHAI FUDAN-ZHANGJIANG BIO-PHARMACEUTICAL CO., LTD., priority 2019, published 2022).
Read-outs that look alike come from different tables or passages of the source. Where a SMILES comes first, the peptide text is derived from it. [ ]: non-standard residue; d: D form. The star is where a group is joined. Dolaproine = CO[C@@H]([C@@H]1CCCN1)[C@@H](C)C(=O)O; Dil = CC[C@H](C)[C@H](NC)[C@@H](CC(=O)O)OC; X1 = C[C@@H](N*)[C@@H](O)c1ccccc1; NMeV = CN[C@H](C(=O)O)C(C)C

Key:
[1] = test system: Hodgkin lymphoma cells L540; experiment: In vitro killing of L540 cells, single drugs and combinations; type: cell-based
Method: (§1) After the sample was added, it was cultured in 5% CO2 at 37° C. for 77±2 hours, stained with AlamarBlue fluorescent dye, cultured for 19±2 hours, and read at 530 nm (excitation)/590 nm (emission). The IC50 value of the semi-inhibitory concentration of each sample was calculated by fitting with the computer's four-parameter equation software.
(§2) Cell proliferation method was used to investigate the killing effect of drugs on cells.

Karpas299 cells = experiment: In vitro killing of Karpas299 cells (AlamarBlue), single drugs and combinations; type: cell-based, human
Method: as §1, §2

[2] = test system: Hodgkin lymphoma cells L428; experiment: In vitro killing of L428 cells (AlamarBlue), single drugs, MDR1 inhibitor, combinations
Method: Cell proliferation method was used to investigate the killing effect of drugs on cells. L428 cells were inoculated in 96-well cell culture plates at 5×10^4 cell/mL, i.e., 5000 cells per well. Doxorubicin was diluted to 259.5 ng/mL, 129.8 ng/mL, 64.88 ng/mL, 32.44 ng/mL, 21.63 ng/mL, 14.42 ng/mL, 9.611 ng/mL, 3.844 ng/mL, 1.538 ng/mL using cell culture medium, for a total of 9 concentrations. Serial dilutions of Doxorubicin were added to the culture plates of the seeded plates and incubated for 77±2 hours at 37° C. in a 5% CO2 incubator. The samples were stained with AlamarBlue fluorescent dye and incubated at 37° C. in a 5% CO2 incubator for 19±2 hours. Readings were performed at wavelength of 50 nm (excitation)/590 nm (emission). The IC50 value of Doxorubicin was calculated by fitting it with four-parameter equation.
Calcusyn, the software for calculating the combination index, was chosen to calculate the CI of the combination index at different killing levels,

[3] = test system: Hodgkin lymphoma cells L428; details: known in the art; cited from earlier work
[4] = target: MDR1 (multidrug resistance gene 1 product, CD243, ABC B1) on the cell surface (UniProt P08183); experiment: flow cytometry, PE-labelled UIC2 on L540 cells (cells other than L428 did not express MDR1); PBS as negative control
[5] = target: MDR1 (multidrug resistance gene 1 product, CD243, ABC B1) on the cell surface (UniProt P08183); experiment: flow cytometry, PE-labelled UIC2 on L428 cells (text: L428 specifically expressed MDR1 on the surface); PBS as negative control
[6] = target: MDR1 (multidrug resistance gene 1 product, CD243, ABC B1) on the cell surface (UniProt P08183); experiment: flow cytometry, PE-labelled UIC2 on HH cells (cells other than L428 did not express MDR1); PBS as negative control
[7] = target: MDR1 (multidrug resistance gene 1 product, CD243, ABC B1) on the cell surface (UniProt P08183); experiment: flow cytometry, PE-labelled UIC2 on Karpas 299 cells (cells other than L428 did not express MDR1); PBS as negative control
[8] = Homo sapiens, L-428, read-out: IC50 of single drug
[9] = Homo sapiens, L-540, L540, Tables 8 and 13, read-out: IC50 of single drug
[10] = Homo sapiens, KARPAS-299, Karpas299 cells, Table 13, read-out: IC50 of single drug

Row | Molecule | IC50 [2, 8] [µM] | IC50 [1, 9] [µM] | IC50 (Karpas299 cells; [10]) [µM] | further results
1 | O=P1(N(CCCl)CCCl)NCCCO1 (stereo not shown) [Cyclophosphamide] | 590 | – | – | IC50 ([1]; Homo sapiens, L-540, read-out: IC50 of single drug): 121 µM; IC50 (Karpas299 cells; Homo sapiens, KARPAS-299, read-out: IC50 of single drug): 385 µM
2 | CN(C)/N=N/c1[nH]cnc1C(N)=O [Dacarbazine] | 178 | 31.3 | – | –
3 | COc1cccc2c1C(=O)c1c(O)c3c(c(O)c1C2=O)C[C@@](O)(C(=O)CO)C[C@@H]3O[C@H]1C[C@H](N)[C@H](O)[C@H](C)O1 [Doxorubicin] | 0.0278 | 0.0585 | 0.0405 | –
4 | COc1cc([C@@H]2c3cc4c(cc3[C@@H](O[C@@H]3O[C@@H]5CO[C@@H](C)O[C@H]5[C@H](O)[C@H]3O)[C@H]3COC(=O)[C@H]23)OCO4)cc(OC)c1O [Etoposide] | 54.2 | 30.1 | 64.1 | –
5 | CC[C@H](C)[C@@H]([C@@H](CC(=O)N1CCC[C@H]1[C@H](OC)[C@@H](C)C(=O)N[C@H](C)[C@@H](O)c1ccccc1)OC)N(C)C(=O)[C@@H](NC(=O)[C@@H](NC)C(C)C)C(C)C [MMAE] (H-[NMeV]V[Dil][Dolaproine]-X1) | – | – | – | Sensitivity of L428 to the small molecule (in words) [3]: sensitive
6 | C[C@]12C=CC(=O)C=C1CC[C@@H]1[C@@H]2C(=O)C[C@@]2(C)[C@H]1CC[C@]2(O)C(=O)CO [Prednisone] | 113 | 98.5 | 187 | –
7 | CNNCc1ccc(C(=O)NC(C)C)cc1 [Procarbazine] | 500 | 24.7 | 26.9 | –
8 | CC[C@]1(O)C[C@H]2CN(CCc3c([nH]c4ccccc34)[C@@](C(=O)OC)(c3cc4c(cc3OC)N(C=O)[C@H]3[C@@](O)(C(=O)OC)[C@H](OC(C)=O)[C@]5(CC)C=CCN6CC[C@]43[C@@H]65)C2)C1 [Vincristine] | 0.0281 | 0.000772 | 0.0185 | –
9 | Bleomycin | – | – | – | IC50 ([1]; read-out: IC50 of single drug): 3.2 µM; IC50 (Karpas299 cells; read-out: IC50 of single drug): 1.68 µM; IC50 ([2]; read-out: IC50 of single drug): 2.04 µM
10 | CD243 (ABC B1) monoclonal antibody (UIC 2), PE (ThermoFisher) | – | – | – | MDR1 binding ratio [4]: 1.2; MDR1 binding ratio [5]: 16.1; MDR1 binding ratio [6]: 2.6; MDR1 binding ratio [7]: 1.2
